Results reported in patent publication US10654876B2, “TH-302 solid forms and methods related thereto” (Molecular Templates, Inc., priority 2014, dated 2020).

How the values were obtained:
[1] = Stability of crystalline form A to relative humidity; format: physicochemical; settings: 15% relative humidity (RH) at 25° C.; anhydrous crystalline form A
Experimental: (§1) Crystalline form A of TH-302 is anhydrous which is stable to 15% relative humidity (RH) at 25° C. No change in the chemical purity of TH-302 was observed after one week when in accelerated stability tests at high temperature (40° C.) and high relative humidity (75% RH). An improvement in the physical appearance of a dosage form of a drug enhances both physician and patient acceptance and increases the likelihood of success of the treatment.

[2] = Accelerated stability test at high temperature and high relative humidity; format: physicochemical; settings: 40° C., 75% RH, after one week
Experimental: as §1

SMILES: Cn1c(COP(=O)(NCCBr)NCCBr)cnc1[N+](=O)[O-] [TH-302, N,N′-Bis(2-bromoethyl)phosphorodiamidic acid (1-methyl-2-nitro-1H-imidazol-5-yl)methyl ester]
- stability to relative humidity [1]: stable
- change in the chemical purity [2]: No change
